Here are results for 1 cell line from the supplement of paper PMC10307832.

Compound in the assay: NC(=O)c1ccc(N(C(N)=O)c2c(F)cccc2F)nc1-c1ccc(F)cc1F [VX-702]
Put plainly: relative viability (nuclei count vs DMSO), 5 days (fraction); higher = more cells survive. In short, it runs like this: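 In 1536-well plates, lung cancer cell lines rested overnight at 37 °C before five library-drug doses (not always all listed), √10 apart, were pinned onto vehicle-anchored plates. Nuclei were counted with MetaXpress from 4× Hoechst images taken after 5 days without medium change. Viability compares treated-well with vehicle-well nuclei as a median over plates, and plates needed control CV below 25% plus at least one doubling to pass.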

For SW 900, the relative viability (0.02 µM) is 0.885, the relative viability (0.2 µM) came out at 0.82, the relative viability (0.6325 µM) turned out to be 0.775 and the relative viability (2 µM) is 1.02.
